± gives the uncertainty stated by the source.
What was measured:
Conditions in all cases: 18 h
[1] = system: HEK293T-Rex ERSE-FLuc; test: EC50 for ERSE-FLuc reporter activation
Protocol: (§1)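 Dose-response of hit compounds in HEK293T-Rex cells stably expressing ERSE-FLuc or XBP1-RLuc reporters, 18 hr treatment, 1536-well; luminescence normalised to 500 nM thapsigargin (100%) and DMSO (0%), fitted to give EC50 (M) and maximal activation; '>' marks EC50 above the top tested dose (~17 µM).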

[2] = system: HEK293T-Rex XBP1-RLuc; test: EC50 for XBP1-RLuc reporter activation
Protocol: as §1

[3] = system: HEK293T-Rex ERSE-FLuc; test: maximal ERSE-FLuc activation from dose-response fit, relative to thapsigargin (% of thapsigargin); higher = stronger activation
Protocol: as §1

[4] = system: HEK293T-Rex XBP1-RLuc; test: maximal XBP1-RLuc activation from dose-response fit, relative to thapsigargin (% of thapsigargin); higher = stronger activation
Protocol: as §1

Row | Structure (SMILES) | EC50 for ERSE-FLuc reporter activation [1] | EC50 for XBP1-RLuc reporter activation [2] | maximal ERSE-FLuc activation [3] | maximal XBP1-RLuc activation [4]
1 | C/C(=N\NC(=O)c1n[nH]c2c1CCCC2)c1ccc2ccccc2c1 | > 16.9 µM | > 16.9 µM | 23.2 ± 3.1 | 8.52 ± 1
2 | CCCCCCc1ccc(-c2ncc(N)cn2)cc1 | 5.65 µM | > 16.9 µM | 76.7 ± 9.1 | 44.3 ± 1.5
3 | N#C/C(=C\c1ccc(O)c(O)c1)c1nc2ccccc2[nH]1 | > 16.9 µM | > 16.9 µM | 37.6 ± 12 | 25.6 ± 1.6
4 | Cc1ccc(O)c(NC(=O)c2cc(-c3ccc(F)cc3)on2)c1 | > 16.9 µM | > 16.9 µM | 31 ± 7.9 | 18.8 ± 3.2
5 | Cc1ccc(O)c(-c2cc(C(F)(F)C(F)F)no2)c1 | 7.56 µM | > 16.7 µM | 79.8 ± 24 | 23.6 ± 5.9
6 | Nc1c(C(=O)Nc2ccccc2)sc2nc3c(cc12)CCCCC3 | > 16.5 µM | > 16.5 µM | 29.8 ± 4.8 | 15.7 ± 1.2
7 | COC(=O)c1ccc2c(COC(C)=O)c(OC(C)=O)ccc2c1COC(C)=O | 14.7 µM | > 16.9 µM | 70.9 ± 16 | 19.2 ± 4.8
8 | CCc1nc2sc(C(=O)c3ccccc3)c(N)c2cc1C | > 16.3 µM | > 16.3 µM | 25.4 ± 6.3 | 4.69 ± 3.2
9 | Cc1ccc(O)c(NC(=S)NC(=O)/C=C/c2ccco2)c1 | > 16.9 µM | > 16.9 µM | 30.2 ± 7.3 | 5.76 ± 1.5
10 | Cc1cc(C)nc(/N=C(\N)Nc2ccc(OCCC(C)C)cc2)n1 | > 15.5 µM | > 5.17 µM | 45.3 ± 7.7 | 89.1 ± 9.1
11 | N#CC1=C(N)Oc2c(ccc3ccccc23)C1c1ccsc1 (centres undefined) | > 18.3 µM | > 18.3 µM | 21.2 ± 5.6 | 5.3 ± 5
12 | N#Cc1ccc(-c2cccs2)nc1SCc1ccccn1 | > 16.4 µM | > 16.4 µM | 28.6 ± 1.8 | 5.22 ± 2.9
13 | CCCCCOc1ccc(N/C(N)=N/c2nc(C)cc(C)n2)cc1 | 10.4 µM | 4.05 µM | 68 ± 8.8 | 152 ± 12
14 | CC(=O)c1cccc(Nc2nc(-c3ccc(O)c(O)c3)cs2)c1 | 9.07 µM | 13.5 µM | 87.3 ± 28 | 62.6 ± 15
15 | Cc1ccccc1-c1cc(=O)c2cc(Cl)ccc2o1 | > 17 µM | > 17 µM | 24.3 ± 3.6 | 21.7 ± 1.1
16 | Oc1cccc(/C=N/Nc2ccc(Cl)nn2)c1O | > 17.9 µM | > 17.9 µM | 41.7 ± 1.8 | 19.4 ± 1
17 | Oc1ccccc1/C=N\Nc1nc2ccccc2o1 | > 17.3 µM | > 17.3 µM | 12.4 ± 3.9 | 19.8 ± 1.3
18 | CC(=O)Oc1ccc2cc(NC(=O)c3ccc(C)cc3)c(=O)oc2c1 | > 15.1 µM | > 15.1 µM | 25.8 ± 1.6 | 14.6 ± 0.94
19 | N#CC1=C(N)Oc2c(ccc3ccccc23)C1c1ccccc1 (centres undefined) | > 16.9 µM | > 16.9 µM | 15.5 ± 0.4 | 7.34 ± 1.6
20 | N#C/C(=C/c1ccc(O)c(O)c1)c1nc2ccccc2[nH]1 | > 16.9 µM | > 16.9 µM | 29 ± 5.2 | 20.7 ± 5.2
21 | Cc1ccc(/C=N/NC(=O)c2cccc(F)c2)cc1 | > 16.9 µM | > 16.9 µM | 23.1 ± 1.4 | 1.93 ± 2
